Read-outs that look alike come from different tables or passages of the source.
Test: in vitro
Assay type: in vitro ADME
Conditions: human
In short: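 Caco-2 monolayers cultured 19 days on inserts (TEER >600 […]); bidirectional A-to-B and B-to-A transport at 37° C over 90 min, samples quantified by LC/MS/MS. Papp, efflux ratio and recovery calculated; ER >2 flags potential efflux substrates.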

[1] = Caco-2 monolayer, apical to basolateral, 90-minute incubation, read-out: Papp, A-B
[2] = Caco-2 monolayer, basolateral to apical, 90-minute incubation, read-out: Papp, B-A
[3] = Caco-2 monolayer, ER>2 indicates potential efflux transporter substrate, read-out: ER (efflux ratio)

Row | SMILES | Papp A→B at 90 min (Caco-2) | Papp B→A at 90 min (Caco-2) | efflux ratio at 90 min (Caco-2) | Papp A→B at 90 min [1] | Papp B→A at 90 min [2] | efflux ratio at 90 min [3]
1 | CC(C)[C@H](N)C(=O)O[C@H]1[C@@H](O)[C@](C#N)(c2ccc3c(NC(=O)OCOC(=O)C(C)(C)C)ncnn23)O[C@@H]1COC(=O)CC1CCCCC1 [Compound 361, (2R,3S,4R,5R)-5-cyano-2-((2-cyclohexylacetoxy)methyl)-4-hydroxy-5-(4-((((pivaloyloxy)methoxy)carbonyl)amino)pyrrolo[2,1-f][1,2,4]triazin-7-yl)tetrahydrofuran-3-yl L-valinate] | 0.15 ×10⁻⁶ cm/s | 0.05 ×10⁻⁶ cm/s | 0.33 | – | – | –
2 | CC(C)CC(=O)OC[C@H]1O[C@@](C#N)(c2ccc3c(N)ncnn23)[C@H](O)[C@@H]1OC(=O)C(C)C [Compound 22, ((2R,3S,4R,5R)-5-(4-aminopyrrolo[2,1-f][1,2,4]triazin-7-yl)-5-cyano-4-hydroxy-3-(isobutyryloxy)tetrahydrofuran-2-yl)methyl 3-methylbutanoate] | 7 ×10⁻⁶ cm/s | 10 ×10⁻⁶ cm/s | 1.5 | – | – | –
3 | CC(C)CC(=O)OC[C@H]1O[C@@](C#N)(c2ccc3c(NC(=O)[C@@H](N)C(C)C)ncnn23)[C@H](O)[C@@H]1O [Compound 117, [(2R,3S,4R,5R)-5-{4-[(2S)-2-amino-3-methylbutanamido]pyrrolo[2,1-f][1,2,4]triazin-7-yl}-5-cyano-3,4-dihydroxyoxolan-2-yl]methyl 3-methylbutanoate] | 0.22 ×10⁻⁶ cm/s | 3.3 ×10⁻⁶ cm/s | 15 | – | – | –
4 | CC(=O)O[C@H]1[C@@H](OC(C)=O)[C@](C#N)(c2ccc3c(N)ncnn23)O[C@@H]1COC(=O)C(C)(C)C1CCCCC1 [Compound 412, (2R,3R,4R,5R)-2-(4-aminopyrrolo[2,1-f][1,2,4]triazin-7-yl)-2-cyano-5-(((2-cyclohexyl-2-methylpropanoyl)oxy)methyl)tetrahydrofuran-3,4-diyl diacetate] | 5.1 ×10⁻⁶ cm/s | 0.9 ×10⁻⁶ cm/s | 0.2 | – | – | –
5 | CNc1nc(N)nc2c1ncn2[C@@H]1O[C@H](COC(=O)CC2CCCCC2)[C@@H](OC(=O)C(C)C)[C@@]1(C)F [Compound 223, (2R,3R,4R,5R)-5-[2-amino-6-(methylamino)purin-9-yl]-2-{[(2-cyclohexylacetyl)oxy]methyl}-4-fluoro-4-methyloxolan-3-yl 2-methylpropanoate] | 20 ×10⁻⁶ cm/s | 6.9 ×10⁻⁶ cm/s | 0.34 | – | – | –
6 | CCCCCOC(=O)Nc1ncnn2c([C@]3(C#N)O[C@H](COC(=O)Cc4ccccc4)[C@@H](O)[C@H]3O)ccc12 [Compound 89, ((2R,3S,4R,5R)-5-cyano-3,4-dihydroxy-5-(4-(((pentyloxy)carbonyl)amino)pyrrolo[2,1-f][1,2,4]triazin-7-yl)tetrahydrofuran-2-yl)methyl 2-phenylacetate] | – | – | – | 2.1 ×10⁻⁶ cm/s | 6.6 ×10⁻⁶ cm/s | 3.2
7 | CNc1nc(N)nc2c1ncn2[C@@H]1O[C@H](COC(=O)CC(C)C)[C@@H](OC(=O)CC(C)C)[C@@]1(C)F [Compound 312, (2R,3R,4R,5R)-5-(2-amino-6-(methylamino)-9H-purin-9-yl)-4-fluoro-4-methyl-2-(((3-methylbutanoyl)oxy)methyl)tetrahydrofuran-3-yl 3-methylbutanoate] | 23 ×10⁻⁶ cm/s | 6.5 ×10⁻⁶ cm/s | 0.28 | – | – | –
8 | CNc1nc(N)nc2c1ncn2[C@@H]1O[C@H](COC(=O)C(C)C)[C@@H](O)[C@@]1(C)F [Compound 3, ((2R,3R,4R,5R)-5-(2-amino-6-(methylamino)-9H-purin-9-yl)-4-fluoro-3-hydroxy-4-methyltetrahydrofuran-2-yl)methyl isobutyrate] | 1.8 ×10⁻⁶ cm/s | 3.5 ×10⁻⁶ cm/s | 2 | – | – | –
9 | CC(C)CC(=O)OC[C@H]1O[C@@](C#N)(c2ccc3c(NC(=O)[C@@H](N)Cc4ccc(F)cc4)ncnn23)[C@H](O)[C@@H]1O [Compound 101, ((2R,3S,4R,5R)-5-(4-((S)-2-amino-3-(4-fluorophenyl)propanamido)pyrrolo[2,1-f][1,2,4]triazin-7-yl)-5-cyano-3,4-dihydroxytetrahydrofuran-2-yl)methyl 3-methylbutanoate] | 0.07 ×10⁻⁶ cm/s | 13 ×10⁻⁶ cm/s | 175 | – | – | –
10 | CCC(=O)OC[C@H]1O[C@@H](n2cnc3c(NC)nc(N)nc32)[C@](C)(F)[C@@H]1OC(C)=O [Compound 220, ((2R,3R,4R,5R)-3-acetoxy-5-(2-amino-6-(methylamino)-9H-purin-9-yl)-4-fluoro-4-methyltetrahydrofuran-2-yl)methyl propionate] | 20 ×10⁻⁶ cm/s | 13 ×10⁻⁶ cm/s | 0.64 | – | – | –
11 | N#C[C@@]1(c2ccc3c(NC(=O)[C@@H](N)Cc4ccc(F)cc4)ncnn23)O[C@H](COC(=O)CC2CCCCC2)[C@@H](O)[C@H]1O [Compound 96, ((2R,3S,4R,5R)-5-(4-((S)-2-amino-3-(4-fluorophenyl)propanamido)pyrrolo[2,1-f][1,2,4]triazin-7-yl)-5-cyano-3,4-dihydroxytetrahydrofuran-2-yl)methyl 2-cyclohexylacetate] | 0.45 ×10⁻⁶ cm/s | 5.2 ×10⁻⁶ cm/s | 12 | – | – | –
12 | N#C[C@@]1(c2ccc3c(N)ncnn23)O[C@H](COC(=O)CC2CCOCC2)[C@@H](O)[C@H]1O [Compound 257, ((2R,3S,4R,5R)-5-(4-aminopyrrolo[2,1-f][1,2,4]triazin-7-yl)-5-cyano-3,4-dihydroxytetrahydrofuran-2-yl)methyl 2-(tetrahydro-2H-pyran-4-yl)acetate] | 0.03 ×10⁻⁶ cm/s | 1.4 ×10⁻⁶ cm/s | 46 | – | – | –
13 | CCCCC(=O)Nc1ncnn2c([C@]3(C#N)O[C@H](CO)[C@@H](O)[C@H]3O)ccc12 [Compound 264, N-(7-((2R,3R,4S,5R)-2-cyano-3,4-dihydroxy-5-(hydroxymethyl)tetrahydrofuran-2-yl)pyrrolo[2,1-f][1,2,4]triazin-4-yl)pentanamide] | 0.03 ×10⁻⁶ cm/s | 0.53 ×10⁻⁶ cm/s | 20 | – | – | –
14 | CNc1nc(N)nc2c1ncn2[C@@H]1O[C@H](COC(=O)C(C)C)[C@@H](OC(=O)Cc2ccccc2)[C@@]1(C)F [Compound 211, ((2R,3R,4R,5R)-5-(2-amino-6-(methylamino)-9H-purin-9-yl)-4-fluoro-4-methyl-3-(2-phenylacetoxy)tetrahydrofuran-2-yl)methyl isobutyrate] | – | – | – | 6.2 ×10⁻⁶ cm/s | 4.8 ×10⁻⁶ cm/s | 0.8
15 | N#C[C@@]1(c2ccc3c(NC(=O)c4ccccc4)ncnn23)O[C@H](CO)[C@@H](OC(=O)Cc2ccccc2)[C@H]1O [Compound 143, (2R,3S,4R,5R)-5-(4-benzamidopyrrolo[2,1-f][1,2,4]triazin-7-yl)-5-cyano-4-hydroxy-2-(hydroxymethyl)tetrahydrofuran-3-yl 2-phenylacetate] | – | – | – | 0.67 ×10⁻⁶ cm/s | 0.12 ×10⁻⁶ cm/s | 0.18
16 | CC(C)C(=O)O[C@H]1[C@@H](O)[C@](C#N)(c2ccc3c(N)ncnn23)O[C@@H]1COC(=O)Cc1ccccc1 [Compound 46, (2R,3S,4R,5R)-5-(4-aminopyrrolo[2,1-f][1,2,4]triazin-7-yl)-5-cyano-4-hydroxy-2-((2-phenylacetoxy)methyl)tetrahydrofuran-3-yl isobutyrate] | – | – | – | 2.7 ×10⁻⁶ cm/s | 4.8 ×10⁻⁶ cm/s | 1.8
